From ChEMBL document CHEMBL4334464, “From Phenylthiazoles to Phenylpyrazoles: Broadening the Antibacterial Spectrum toward Carbapenem-Resistant Bacteria” (J Med Chem, 2019)
≈ marks a conversion by molar mass, not a printed value. Calls of active or inactive are those of the source. No cut-off for these calls is given here.

Experiments:
Salmonella enteritidis [1] = test: Antibacterial activity against Salmonella enteritidis ATCC 13076 clinical isolates after 18 to 20 hrs in aerobic condition by CLSI-based broth microdilution assay; format: functional, Salmonella enterica subsp. enterica serovar Enteritidis; conditions: Salmonella enterica
Acinetobacter baumannii [2] = test: Antibacterial activity against Acinetobacter baumannii ATCC 19606 clinical isolates after 18 to 20 hrs in aerobic condition by CLSI-based broth microdilution assay; format: functional; conditions: ATCC 19606 = CIP 70.34 = JCM 6841
Clostridioides difficile [3] = test: Ratio of MBC to MIC for Clostridium difficile ATCC BAA 1870; format: functional
[4] = system: Staphylococcus epidermidis; test: Ratio of MBC to MIC for Staphylococcus epidermidis NRS101 clinical isolates; format: functional
Staphylococcus aureus = test: Antibacterial activity against Methicillin-sensitive Staphylococcus aureus ATCC 6538 clinical isolates after 18 to 20 hrs in aerobic condition by CLSI protocol based broth microdilution assay; format: functional
Salmonella enteritidis [5] = test: Ratio of MBC to MIC for Salmonella enteritidis ATCC 13076 clinical isolates; format: functional, Salmonella enterica subsp. enterica serovar Enteritidis
Streptococcus pneumoniae [6] = test: Antibacterial activity against cephalosporin-resistant Streptococcus pneumoniae ATCC 51916 clinical isolates after 18 to 20 hrs by CLSI-based broth microdilution assay; format: functional
[7] = system: Staphylococcus epidermidis; test: Antibacterial activity against Staphylococcus epidermidis NRS101 after 18 to 20 hrs in aerobic condition by CLSI-based broth microdilution assay; format: functional
Klebsiella pneumoniae [8] = test: Ratio of MBC to MIC for Klebsiella pneumoniae BAA-1144 clinical isolates; format: functional
Klebsiella pneumoniae [9] = test: Antibacterial activity against Klebsiella pneumoniae BAA-1144 clinical isolates after 18 to 20 hrs in aerobic condition by CLSI-based broth microdilution assay; format: functional
Klebsiella pneumoniae [10] = test: Antibacterial activity against Klebsiella pneumoniae BAA-1706 clinical isolates after 18 to 20 hrs in aerobic condition by CLSI-based broth microdilution assay; format: functional
Clostridioides difficile [11] = test: Antibacterial activity against Clostridium difficile ATCC BAA 1870 incubated for 48 hrs in anaerobic condition by CLSI-based broth microdilution assay; format: functional; conditions: ATCC BAA 1870, 48 h
Listeria monocytogenes = test: Antibacterial activity against Listeria monocytogenes ATCC 19111 after 18 to 20 hrs in aerobic condition by CLSI-based broth microdilution assay; format: functional
[12] = system: Enterobacter cloacae subsp. cloacae; test: Ratio of MBC to MIC for Enterobacter cloacae subsp. cloacae ATCC BAA-1143 clinical isolates; format: functional
Streptococcus pneumoniae [13] = test: Ratio of MBC to MIC for […] Streptococcus pneumoniae ATCC 700677 clinical isolates; format: functional
Enterococcus faecalis = test: Antibacterial activity against vancomycin-resistant Enterococcus faecalis ATCC 51299 clinical isolates after 18 to 20 hrs in aerobic condition by CLSI-based broth microdilution assay; format: functional
Acinetobacter baumannii [14] = test: Antibacterial activity against Acinetobacter baumannii NR 17786 clinical isolates after 18 to 20 hrs in aerobic condition by CLSI-based broth microdilution assay; format: functional
Enterococcus faecium [15] = test: Ratio of MBC to MIC for vancomycin-resistant Enterococcus faecium ATCC 700221 clinical isolates; format: functional
[16] = target: T1, Ditrans,polycis-undecaprenyl-diphosphate synthase ((2E,6E)-farnesyl-diphosphate specific) (Escherichia coli (strain K12)) (UniProt P60472); test: Inhibition of Escherichia coli UPPS using FPP/IPP as substrate preincubated for 30 mins followed by substrates addition and measured after 30 mins by malachite green reagent based assay
T1 sequence (whole entry): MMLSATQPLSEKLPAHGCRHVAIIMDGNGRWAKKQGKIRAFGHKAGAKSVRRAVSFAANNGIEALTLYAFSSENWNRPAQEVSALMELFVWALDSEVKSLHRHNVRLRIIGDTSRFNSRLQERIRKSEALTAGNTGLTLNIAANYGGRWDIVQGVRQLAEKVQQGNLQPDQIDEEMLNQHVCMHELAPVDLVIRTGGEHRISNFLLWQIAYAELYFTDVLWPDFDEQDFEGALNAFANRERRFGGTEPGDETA

Enterococcus faecium [17] = test: Antibacterial activity against vancomycin-resistant Enterococcus faecium ATCC 700221 clinical isolates after 18 to 20 hrs in aerobic condition by CLSI-based broth microdilution assay; format: functional
Pseudomonas aeruginosa [18] = test: microbe, parasite or virus in culture; conditions: ATCC 9027
Description: Antibacterial activity against Pseudomonas aeruginosa ATCC 9027 clinical isolates after 18 to 20 hrs in aerobic condition by CLSI-based broth microdilution assay

Streptococcus pneumoniae [19] = test: Ratio of MBC to MIC for cephalosporin-resistant Streptococcus pneumoniae ATCC 51916 clinical isolates; format: functional
Salmonella typhimurium = test: Ratio of MBC to MIC for Salmonella typhimurium ATCC 700720 clinical isolates; format: functional, Salmonella enterica subsp. enterica serovar Typhimurium
Acinetobacter baumannii [20] = test: Antibacterial activity against Acinetobacter baumannii ATCC BAA 1141 clinical isolates after 18 to 20 hrs in aerobic condition by CLSI-based broth microdilution assay; format: functional
Escherichia coli [21] = test: microbe, parasite or virus in culture; conditions: ATCC 1411
Description: Antibacterial activity against Escherichia coli ATCC 1411 clinical isolates after 18 to 20 hrs in aerobic condition by CLSI-based broth microdilution assay

Escherichia coli [22] = test: Antibacterial activity against carbapenem-resistant Escherichia coli BAA-2452 clinical isolates after 18 to 20 hrs in aerobic condition by CLSI-based broth microdilution assay; format: functional
Klebsiella pneumoniae [23] = test: Antibacterial activity against carbapenem-resistant Klebsiella pneumoniae ATCC BAA-1705 clinical isolates after 18 to 20 hrs in aerobic condition by CLSI-based broth microdilution assay; format: functional
Klebsiella pneumoniae [24] = test: Antibacterial activity against carbapenem-resistant Klebsiella pneumoniae ATCC BAA-2146 clinical isolates after 18 to 20 hrs in aerobic condition by CLSI-based broth microdilution assay; format: functional
Escherichia coli [25] = test: Antibacterial activity against carbapenem-resistant Escherichia coli BAA-2469 clinical isolates after 18 to 20 hrs in aerobic condition by CLSI-based broth microdilution assay; format: functional
Pseudomonas aeruginosa [26] = test: Antibacterial activity against carbapenem-resistant Pseudomonas aeruginosa ATCC 1744 clinical isolates after 18 to 20 hrs in aerobic condition by CLSI-based broth microdilution assay; format: functional

Row | SMILES | MIC (Salmonella enteritidis [1]) [µg/mL] | MIC (Acinetobacter baumannii [2]) [µg/mL] | Ratio (Clostridioides difficile [3]) | Ratio [4] | MIC (Staphylococcus aureus) [µg/mL] | Ratio (Salmonella enteritidis [5]) | MIC (Streptococcus pneumoniae [6]) [µg/mL] | MIC [7] [µg/mL] | Ratio (Klebsiella pneumoniae [8]) | MIC (Klebsiella pneumoniae [9]) [µg/mL] | MIC (Klebsiella pneumoniae [10]) [µg/mL] | MIC (Clostridioides difficile [11]) [µg/mL] | MIC (Listeria monocytogenes) [µg/mL] | Ratio [12] | Ratio (Streptococcus pneumoniae [13]) | MIC (Enterococcus faecalis) [µg/mL] | MIC (Acinetobacter baumannii [14]) [µg/mL] | Ratio (Enterococcus faecium [15]) | MIC (Enterococcus faecium [17]) [µg/mL] | MIC (Pseudomonas aeruginosa [18]) [µg/mL] | further results
1 | CCCCCC#Cc1ccc(-n2ncc(/C(C)=N/NC3=NCCN3)c2C)cc1 | > 128 | 8 (≈ 21.2 µM) | <3 | <3 | 2 (≈ 5.31 µM) | >=1 | 4 (≈ 10.6 µM) | 2 (≈ 5.31 µM) | >=1 | > 128 | > 128 | 4 (≈ 10.6 µM) | 2 (≈ 5.31 µM) | > 1 | <3 | 4 (≈ 10.6 µM) | > 128 | <3 | 2 (≈ 5.31 µM) | > 128 | inhibition [16]: inactive; Ratio (Streptococcus pneumoniae [19]): <3; Ratio (Salmonella typhimurium): >=1; MIC (Acinetobacter baumannii [20]): > 128 µg/mL; MIC (Escherichia coli [21]): > 128 µg/mL
2 | C/C(=N\NC(=N)N)c1cnn(-c2ccc(C#CC3(O)CCCCC3)cc2)c1C | 32 (≈ 84.5 µM) | 4 (≈ 10.6 µM) | <3 | <3 | 2 (≈ 5.28 µM) | >=1 | 4 (≈ 10.6 µM) | 4 (≈ 10.6 µM) | >=1 | 16 (≈ 42.3 µM) | 8 (≈ 21.1 µM) | 4 (≈ 10.6 µM) | 2 (≈ 5.28 µM) | > 1 | <3 | 2 (≈ 5.28 µM) | 16 (≈ 42.3 µM) | <3 | 2 (≈ 5.28 µM) | 32 (≈ 84.5 µM) | MIC (Escherichia coli [22]): 64 µg/mL (≈ 169 µM); MIC (Klebsiella pneumoniae [23]): 64 µg/mL (≈ 169 µM); MIC (Klebsiella pneumoniae [24]): > 64 µg/mL; MIC (Escherichia coli [25]): 64 µg/mL (≈ 169 µM); MIC (Pseudomonas aeruginosa [26]): 64 µg/mL (≈ 169 µM); Ratio (Streptococcus pneumoniae [19]): <3; Ratio (Salmonella typhimurium): >=1; MIC (Acinetobacter baumannii [20]): 8 µg/mL (≈ 21.1 µM); MIC (Escherichia coli [21]): 32 µg/mL (≈ 84.5 µM)
3 | CCCCCC#Cc1ccc(-n2ncc(/C(C)=N/NC(=N)N)c2C)cc1 | 8 (≈ 22.8 µM) | 4 (≈ 11.4 µM) | <3 | <3 | 2 (≈ 5.71 µM) | >=1 | 2 (≈ 5.71 µM) | 2 (≈ 5.71 µM) | >=1 | 16 (≈ 45.7 µM) | 8 (≈ 22.8 µM) | 4 (≈ 11.4 µM) | 2 (≈ 5.71 µM) | > 1 | <3 | 2 (≈ 5.71 µM) | 8 (≈ 22.8 µM) | <3 | 2 (≈ 5.71 µM) | 16 (≈ 45.7 µM) | MIC (Escherichia coli [22]): 16 µg/mL (≈ 45.7 µM); MIC (Klebsiella pneumoniae [23]): 16 µg/mL (≈ 45.7 µM); MIC (Klebsiella pneumoniae [24]): 32 µg/mL (≈ 91.3 µM); MIC (Escherichia coli [25]): 8 µg/mL (≈ 22.8 µM); MIC (Pseudomonas aeruginosa [26]): 32 µg/mL (≈ 91.3 µM); inhibition [16]: inactive; Ratio (Streptococcus pneumoniae [19]): <3; Ratio (Salmonella typhimurium): >=1; MIC (Acinetobacter baumannii [20]): 4 µg/mL (≈ 11.4 µM); MIC (Escherichia coli [21]): 16 µg/mL (≈ 45.7 µM)
